Holding throughout (experiment): Plate-bound mCD1d fusion protein hybridoma stimulation assay (IL-2 ELISA)
Assay type in all cases: cell-based, mouse

In one assay the test system is 24.8.A hybridoma. The following applies: for IL-2 secretion: 24.8 A NKT hybridoma, plate-bound mCD1d-IgGFc2a fusion protein preincubated with lipid antigen; for IL-2 response to mCD1d fusion protein pre-treated with purified or synthetic lipid: compared to untreated or buffer treated fusion protein. The essentials: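 Protein A plates were loaded with 400-600 ng/well mCD1d fusion protein, then given lipid antigen (40:1 molar ratio to fusion protein unless specified) in PBS pH 7.2 for 24-48 h at 37 °C. After washing, 1×10^5 hybridoma cells/well were added for 16-20 h at 37 °C. Secreted IL-2 measured by sandwich ELISA against a murine IL-2 standard curve.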

For a further assay, the system named is 14S.6.A hybridoma. The following applies: 14S.6.A diverse TCR hybridoma; plate-bound mCD1d-IgGFc2a fusion protein preincubated with lipid antigen. The method, boiled down: (§1)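 Protein A plates coated with 400-600 ng/well mCD1d fusion protein and loaded with lipid antigen (40:1 antigen:protein unless specified) in PBS pH 7.2 for 24-48 hr at 37° C, washed, then given 1×10^5 hybridoma cells/well for 16-20 hr at 37° C. Supernatant IL-2 quantified by sandwich ELISA against murine IL-2 standard curve (pg/ml).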

Another assay relates to 14S.7.N hybridoma. The settings on record: 14S.7.N diverse TCR hybridoma; plate-bound mCD1d-IgGFc2a fusion protein preincubated with lipid antigen. The method, boiled down: as §1
Another assay concerns XV19 hybridoma. The settings on record: XV19 diverse TCR hybridoma; plate-bound mCD1d-IgGFc2a fusion protein preincubated with lipid antigen. The method, boiled down: as §1

“Also recorded” adds a separate entry of the source.

As to unglycosylated ceramide, the IL-2 secretion result with 24.8.A hybridoma was “+ (“+” indicates 50-250 pg/ml)”; in the assay with 14S.6.A hybridoma, 0 (A “0” indicates a mean of less than 50 pg/ml IL-2 was secreted); in the assay on 14S.7.N hybridoma, 0 (A “0” indicates a mean of less than 50 pg/ml IL-2 was secreted); in the assay with XV19 hybridoma, 0 (A “0” indicates a mean of less than 50 pg/ml IL-2 was secreted).

As for β-galactosylceramide [β-GalCer], the IL-2 secretion result is recorded as “+ (“+” indicates 50-250 pg/ml)” with 24.8.A hybridoma, 0 (A “0” indicates a mean of less than 50 pg/ml IL-2 was secreted) in the assay with 14S.6.A hybridoma, 0 (A “0” indicates a mean of less than 50 pg/ml IL-2 was secreted) with 14S.7.N hybridoma and 0 (A “0” indicates a mean of less than 50 pg/ml IL-2 was secreted) in the assay with XV19 hybridoma.

On to `CCCCCCCCCCCCCCCCCCCCCCCCCC(=O)N[C@@H](CO[C@H]1O[C@H](CO)[C@H](O)[C@H](O)[C@H]1O)[C@H](O)[C@H](O)CCCCCCCCCCCCCC` [α-GalCer, α-galactosylceramide], for which the “IL-2 response to mCD1d fusion protein pre-treated with purified or synthetic lipid” value in the assay with 24.8.A hybridoma (24.8.A hybridoma) is “only a slightly enhanced response; also recorded: little IL-2 was secreted”. For the same molecule, the IL-2 secretion result with 24.8.A hybridoma is “+ (“+” indicates 50-250 pg/ml)”; in the assay on 14S.6.A hybridoma it was 0 (A “0” indicates a mean of less than 50 pg/ml IL-2 was secreted); in the assay on 14S.7.N hybridoma, 0 (A “0” indicates a mean of less than 50 pg/ml IL-2 was secreted); in the assay on XV19 hybridoma, 0 (A “0” indicates a mean of less than 50 pg/ml IL-2 was secreted).

Turning to phosphatidylinositol [PI], the “IL-2 response to mCD1d fusion protein pre-treated with purified or synthetic lipid” value in the assay with 24.8.A hybridoma (24.8.A hybridoma) was “marked increase of IL-2 production; also recorded: significantly enhanced IL-2 release”. Further, the “IL-2 produced in the presence of the 19G11 anti-mCD1d mAb” value in the assay with 24.8.A hybridoma (24.8.A hybridoma, representative experiment, 19G11 blocking antibody included) was “no detectable IL-2”. The “mean IL-2 secreted” value in the assay on 24.8.A hybridoma (24.8.A hybridoma, representative experiment, mCD1d fusion protein pre-treated with antigen) is listed as 4,746 pg/ml. For the same molecule, the IL-2 secretion entry in the assay with 24.8.A hybridoma is “+++ (“+++” indicates greater than 1000 pg/ml IL-2)”; in the assay with 14S.6.A hybridoma, “+ (“+” indicates 50-250 pg/ml)”; in the assay on 14S.7.N hybridoma, “+ (“+” indicates 50-250 pg/ml)”; in the assay on XV19 hybridoma it was 0 (A “0” indicates a mean of less than 50 pg/ml IL-2 was secreted). Moreover, the “reduction of IL-2 secretion by phospholipase treatment of the antigen” value in the assay on 24.8.A hybridoma (PI treated with PLC or PLD prior to pre-incubation with the mCD1d fusion protein) is listed as “approximately 70%”.

Values taken from patent US20020071842A1, “Soluble CD1 compositions and uses thereof” (priority 2000, published 2002).
